Data from ChEMBL document CHEMBL1147542 (Bioorg Med Chem Lett, 2004).

Key:
Phosphodiesterase 6 = experiment: Inhibition of phosphodiesterase 6 from bovine retina; type: protein assay, Bos taurus
[1] = Relative inhibition of PDE1 and PDE5
[2] = Relative inhibition of PDE6 and PDE5
[3] = system: Phosphodiesterase 3 and 5 (Oryctolagus cuniculus); experiment: Relative inhibition of PDE3 and PDE5
Phosphodiesterase 1 = Phosphodiesterase 1 (Bos taurus, UniProt Q01061+P14100); experiment: Inhibition of phosphodiesterase 1 from bovine heart; type: protein assay
[4] = molecular target: Phosphodiesterase 3 (Oryctolagus cuniculus); experiment: Inhibition of phosphodiesterase 3 from rabbit platelets

IC50 (Phosphodiesterase 6): 2.58 nM | IC50 ratio [1]: 918 | IC50 ratio [2]: 15 | IC50 ratio [3]: > 15000 | IC50 (Phosphodiesterase 1): 156 nM | IC50 [4]: 2600 nM
Structure (SMILES): CCCOc1ccc(S(=O)(=O)N2CCC(CP(=O)(O)OCC)CC2)cc1-c1nc2c(CCC)nn(C)c2c(=O)[nH]1
